Assay [1] has as its target FGFR4 (Homo sapiens (Human), UniProt P22455). Put plainly: FGFR Enzymatic Assay (FRET peptide phosphorylation), FGFR4. Particulars: for FGFR1/FGFR4 IC50 ratio / FGFR2/FGFR4 IC50 ratio / FGFR3/FGFR4 IC50 ratio: IC50 ratio showing FGFR4 selectivity.
Description: (§1) The enzymes were purchased from Millipore or Invitrogen.
(§2) GraphPad prism3 was used to analyze the data. The IC50 values were derived by fitting the data to the equation for a sigmoidal dose-response with a variable slope. Y=Bottom+(Top-Bottom)/(1+10^((LogIC50−X)*HillSlope)) where X is the logarithm of concentration and Y is the response.
The target in assay [2] is FGFR1 (Homo sapiens (Human), UniProt P11362). The experiment in a line: FGFR Enzymatic Assay (FRET peptide phosphorylation), FGFR1. Particulars: read-out: FGFR1 IC50; pre-incubated for 4 hours.
Description: as §1, §2
Assay [3] concerns the target FGFR2 (Homo sapiens (Human), UniProt P21802). Put plainly: FGFR Enzymatic Assay (FRET peptide phosphorylation), FGFR2. Conditions: read-out: FGFR2 IC50; pre-incubated for 4 hours.
Description: as §1, §2
The target of assay [4] is FGFR3 (Homo sapiens (Human), UniProt P22607). The experiment in a line: FGFR Enzymatic Assay (FRET peptide phosphorylation), FGFR3. Conditions: read-out: FGFR3 IC50; pre-incubated for 4 hours.
Sequence of FGFR3 (P22607 23-806): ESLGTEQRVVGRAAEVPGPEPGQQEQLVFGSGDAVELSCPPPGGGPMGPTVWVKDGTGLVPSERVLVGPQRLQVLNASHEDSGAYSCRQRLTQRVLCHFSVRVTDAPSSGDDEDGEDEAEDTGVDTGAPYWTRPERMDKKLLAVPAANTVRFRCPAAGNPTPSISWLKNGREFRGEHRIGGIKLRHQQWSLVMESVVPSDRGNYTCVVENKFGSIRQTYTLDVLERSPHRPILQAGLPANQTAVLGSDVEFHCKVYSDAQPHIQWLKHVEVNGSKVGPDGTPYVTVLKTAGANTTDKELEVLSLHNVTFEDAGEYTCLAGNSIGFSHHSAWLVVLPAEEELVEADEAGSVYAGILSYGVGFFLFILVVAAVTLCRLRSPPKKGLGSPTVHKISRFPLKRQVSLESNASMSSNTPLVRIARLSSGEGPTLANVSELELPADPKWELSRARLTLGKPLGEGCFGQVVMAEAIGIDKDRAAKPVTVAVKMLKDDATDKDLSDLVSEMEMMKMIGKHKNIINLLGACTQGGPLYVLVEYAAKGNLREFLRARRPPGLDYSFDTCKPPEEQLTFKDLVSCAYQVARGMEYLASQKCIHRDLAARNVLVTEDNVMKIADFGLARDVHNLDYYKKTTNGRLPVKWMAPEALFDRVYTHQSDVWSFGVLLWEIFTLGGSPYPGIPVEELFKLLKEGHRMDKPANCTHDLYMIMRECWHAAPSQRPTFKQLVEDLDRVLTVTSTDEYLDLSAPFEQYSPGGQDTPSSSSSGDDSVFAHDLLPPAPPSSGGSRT
Description: as §1, §2
The mark [5] stands for this setting: read-out: FGFR4 IC50, pre-incubated for 4 hours.

Where two headings read alike, the source gives them in different places. Where only a bound is given, the exact number is not on record here.

Sequence of FGFR2 (P21802 22-821): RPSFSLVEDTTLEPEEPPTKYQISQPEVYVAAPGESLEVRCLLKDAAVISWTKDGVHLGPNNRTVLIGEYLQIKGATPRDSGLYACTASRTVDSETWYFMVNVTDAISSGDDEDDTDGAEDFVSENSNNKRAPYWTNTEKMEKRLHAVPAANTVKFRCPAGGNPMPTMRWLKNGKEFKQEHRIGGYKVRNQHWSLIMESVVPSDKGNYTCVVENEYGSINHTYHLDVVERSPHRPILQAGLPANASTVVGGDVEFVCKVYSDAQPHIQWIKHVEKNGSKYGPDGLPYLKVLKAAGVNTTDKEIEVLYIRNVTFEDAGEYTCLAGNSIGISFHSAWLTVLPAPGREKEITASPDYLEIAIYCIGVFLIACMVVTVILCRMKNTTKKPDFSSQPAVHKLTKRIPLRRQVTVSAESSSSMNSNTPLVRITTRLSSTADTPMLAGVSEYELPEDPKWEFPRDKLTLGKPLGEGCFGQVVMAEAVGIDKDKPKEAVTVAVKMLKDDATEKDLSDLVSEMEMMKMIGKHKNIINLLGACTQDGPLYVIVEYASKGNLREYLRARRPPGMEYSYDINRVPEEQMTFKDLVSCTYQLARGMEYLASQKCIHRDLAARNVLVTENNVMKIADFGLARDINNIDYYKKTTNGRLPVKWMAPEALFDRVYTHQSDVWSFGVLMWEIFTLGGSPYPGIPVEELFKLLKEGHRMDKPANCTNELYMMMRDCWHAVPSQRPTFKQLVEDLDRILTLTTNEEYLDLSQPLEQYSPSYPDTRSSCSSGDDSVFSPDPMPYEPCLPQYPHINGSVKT
Sequence of FGFR1 (P11362 22-822): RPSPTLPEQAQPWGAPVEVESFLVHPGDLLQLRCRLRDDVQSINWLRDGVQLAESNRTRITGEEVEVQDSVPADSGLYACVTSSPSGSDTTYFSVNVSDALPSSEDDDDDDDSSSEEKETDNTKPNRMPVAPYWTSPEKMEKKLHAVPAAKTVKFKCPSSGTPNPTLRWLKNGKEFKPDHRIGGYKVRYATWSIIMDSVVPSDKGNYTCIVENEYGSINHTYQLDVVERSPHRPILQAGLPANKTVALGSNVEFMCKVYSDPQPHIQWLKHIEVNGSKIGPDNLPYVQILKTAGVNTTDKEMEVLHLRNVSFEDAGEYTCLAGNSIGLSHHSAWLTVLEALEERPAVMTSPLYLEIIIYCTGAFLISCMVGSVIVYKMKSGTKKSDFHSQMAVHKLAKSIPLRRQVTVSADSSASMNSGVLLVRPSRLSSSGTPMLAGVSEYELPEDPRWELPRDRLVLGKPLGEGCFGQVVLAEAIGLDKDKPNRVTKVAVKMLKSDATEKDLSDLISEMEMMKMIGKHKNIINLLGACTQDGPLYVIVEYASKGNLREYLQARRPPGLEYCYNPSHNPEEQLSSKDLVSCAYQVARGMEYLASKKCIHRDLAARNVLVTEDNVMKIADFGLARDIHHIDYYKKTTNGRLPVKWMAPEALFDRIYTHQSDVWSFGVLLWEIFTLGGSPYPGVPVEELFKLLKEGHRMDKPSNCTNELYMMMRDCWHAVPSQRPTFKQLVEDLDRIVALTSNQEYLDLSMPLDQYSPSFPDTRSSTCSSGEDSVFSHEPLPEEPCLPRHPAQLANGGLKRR
Sequence of FGFR4 (P22455 22-802): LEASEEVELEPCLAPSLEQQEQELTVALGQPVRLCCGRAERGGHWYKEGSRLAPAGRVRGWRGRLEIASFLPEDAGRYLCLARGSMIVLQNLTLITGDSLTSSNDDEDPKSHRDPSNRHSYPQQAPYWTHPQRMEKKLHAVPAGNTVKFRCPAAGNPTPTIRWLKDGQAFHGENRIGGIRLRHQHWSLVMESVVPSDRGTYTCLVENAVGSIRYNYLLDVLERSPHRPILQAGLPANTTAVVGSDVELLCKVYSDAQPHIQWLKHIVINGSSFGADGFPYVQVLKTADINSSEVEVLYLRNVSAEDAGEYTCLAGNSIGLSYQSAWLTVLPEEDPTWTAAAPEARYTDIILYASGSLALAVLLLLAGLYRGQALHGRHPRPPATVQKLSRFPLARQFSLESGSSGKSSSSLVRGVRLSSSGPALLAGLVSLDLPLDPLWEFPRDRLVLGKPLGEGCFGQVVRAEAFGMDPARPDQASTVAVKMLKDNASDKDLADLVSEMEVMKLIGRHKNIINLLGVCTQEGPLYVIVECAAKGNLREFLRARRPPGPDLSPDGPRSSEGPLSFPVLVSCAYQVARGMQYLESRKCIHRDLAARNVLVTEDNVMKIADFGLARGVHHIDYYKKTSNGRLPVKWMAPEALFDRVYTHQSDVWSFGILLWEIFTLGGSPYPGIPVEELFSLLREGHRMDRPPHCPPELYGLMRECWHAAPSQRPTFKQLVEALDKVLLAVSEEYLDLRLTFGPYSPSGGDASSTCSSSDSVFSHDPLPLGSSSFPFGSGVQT

As for `C=CC(=O)Nc1cnn(Cc2ncn(C)n2)c1-c1cc2c(cn1)CN(c1c(F)c(OC)cc(OC)c1F)C(=O)C21CC1` [Example 23, N-(5-(2′-(2,6-difluoro-3,5-dimethoxyphenyl)-3′-oxo-2′,3′-dihydro-1′H-spiro[cyclopropane-1,4′-[2,7]naphthyridine]-6′-yl)-1-((1-methyl-1H-1,2,4-triazol-3-yl)methyl)-1H-pyrazol-4-yl)acrylamide], the “FGFR1/FGFR4 IC50 ratio” value in assay [1] (pre-incubated for 4 hours) was above 100. In addition, in assay [1] (pre-incubated for 4 hours), the “FGFR2/FGFR4 IC50 ratio” value is given as above 100. Moreover, the “FGFR3/FGFR4 IC50 ratio” value in assay [1] (pre-incubated for 4 hours) is above 100. In addition, the 50% inhibitory concentration (IC50) (as a rule, the point on the concentration scale where inhibition reaches its midpoint) in assay [1] (setting [5]) was below 10 nM; in assay [2], above 200 nM; in assay [3], above 200 nM; in assay [4], above 200 nM.
Regarding `C=CC(=O)Nc1cnn(CC2CCOCC2)c1-c1cc2c(cn1)CN(c1c(F)c(OC)cc(OC)c1F)C(=O)C21CC1` [Example 24, N-(5-(2′-(2,6-difluoro-3,5-dimethoxyphenyl)-3′-oxo,2′,3′-dihydro-1′H-spiro[cyclopropane-1,4′-[2,7]naphthyridine]-6′-yl)-1-((tetrahydro-2H-pyran-4-yl)methyl)-1H-pyrazol-4-yl)acrylamide], the half-inhibitory concentration (IC50) in assay [1] is 10 to 30 nM; in assay [2], above 200 nM; in assay [3], above 200 nM; in assay [4], above 200 nM. Further, the “FGFR1/FGFR4 IC50 ratio” value in assay [1] (pre-incubated for 4 hours) is given as above 100. Moreover, the “FGFR2/FGFR4 IC50 ratio” value in assay [1] (pre-incubated for 4 hours) is on record as above 100. Also, the “FGFR3/FGFR4 IC50 ratio” value in assay [1] (pre-incubated for 4 hours) was above 100.
In the case of `C=CC(=O)Nc1cnn(Cc2ccon2)c1-c1cc2c(cn1)CN(c1c(F)c(OC)cc(OC)c1F)C(=O)C21CC1` [Example 25, N-(5-(2′-(2,6-difluoro-3,5-dimethoxyphenyl)-3′-oxo-2′,3′-dihydro-1′H-spiro[cyclopropane-1,4′-[2,7]naphthyridine]-6′-yl)-1-(isoxazol-3-ylmethyl)-1H-pyrazol-4-yl)acrylamide], the “FGFR1/FGFR4 IC50 ratio” value in assay [1] (pre-incubated for 4 hours) is listed as above 100. For the same molecule, the “FGFR2/FGFR4 IC50 ratio” value in assay [1] (pre-incubated for 4 hours) was above 100. Also, the “FGFR3/FGFR4 IC50 ratio” value in assay [1] (pre-incubated for 4 hours) was above 100. For the same molecule, the IC50 was below 10 nM in assay [1] (setting [5]), above 200 nM in assay [2], above 200 nM in assay [3] and above 200 nM in assay [4].
On to `C=CC(=O)Nc1cnn(Cc2ccnn2C)c1-c1cc2c(cn1)CN(c1c(F)c(OC)cc(OC)c1F)C(=O)C21CC1` [Example 26, N-(5-(2′-(2,6-difluoro-3,5-dimethoxyphenyl)-3′-oxo-2′,3′-dihydro-1′H-spiro[cyclopropane-1,4′-[2,7]naphthyridine]-6′-yl)-1-((1-methyl-1H-pyrazol-5-yl)methyl)-1H-pyrazol-4-yl)acrylamide], for which the half-inhibitory concentration (IC50) in assay [1] is 10 to 30 nM; in assay [2], above 200 nM; in assay [3] it was above 200 nM; in assay [4], above 200 nM. Moreover, in assay [1] (pre-incubated for 4 hours), the “FGFR1/FGFR4 IC50 ratio” value is on record as above 100. Moreover, in assay [1] (pre-incubated for 4 hours), the “FGFR2/FGFR4 IC50 ratio” value is given as above 50. Also, the “FGFR3/FGFR4 IC50 ratio” value in assay [1] (pre-incubated for 4 hours) was above 100.
Regarding `C=CC(=O)Nc1cnn(Cc2cnn(C)c2)c1-c1cc2c(cn1)CN(c1c(F)c(OC)cc(OC)c1F)C(=O)C21CC1` [Example 27, N-(5-(2′-(2,6-difluoro-3,5-dimethoxyphenyl)-3′-oxo-2′,3′-dihydro-1′H-spiro[cyclopropane-1,4′-[2,7]naphthyridine]-6′-yl)-1-((1-methyl-1H-pyrazol-4-yl)methyl)-1H-pyrazol-4-yl)acrylamide], the “FGFR1/FGFR4 IC50 ratio” value in assay [1] (pre-incubated for 4 hours) is on record as above 100. The “FGFR2/FGFR4 IC50 ratio” value in assay [1] (pre-incubated for 4 hours) is above 100. The “FGFR3/FGFR4 IC50 ratio” value in assay [1] (pre-incubated for 4 hours) is on record as above 100. Further, the IC50 was below 10 nM in assay [1] (setting [5]), above 200 nM in assay [2], above 200 nM in assay [3] and above 200 nM in assay [4].
On to `C=CC(=O)Nc1cnn(C[C@@H]2CCOC2)c1-c1cc2c(cn1)CN(c1c(F)c(OC)cc(OC)c1F)C(=O)C21CC1` [Example 28, (S)-N-(5-(2′-(2,6-difluoro-3,5-dimethoxyphenyl)-3′-oxo-2′,3′-dihydro-1′H-spiro[cyclopropane-1,4′-[2,7]naphthyridine]-6′-yl)-1-((tetrahydrofuran-3-yl)methyl)-1H-pyrazol-4-yl)acrylamide], for which the IC50 was 10 to 30 nM in assay [1], above 200 nM in assay [2], above 200 nM in assay [3] and above 200 nM in assay [4]. The “FGFR1/FGFR4 IC50 ratio” value in assay [1] (pre-incubated for 4 hours) was above 100. The “FGFR2/FGFR4 IC50 ratio” value in assay [1] (pre-incubated for 4 hours) is given as above 100. Also, in assay [1] (pre-incubated for 4 hours), the “FGFR3/FGFR4 IC50 ratio” value was above 100.
For `C=CC(=O)Nc1cnn(C[C@H]2CCOC2)c1-c1cc2c(cn1)CN(c1c(F)c(OC)cc(OC)c1F)C(=O)C21CC1` [Example 29, (R)-N-(5-(2′-(2,6-difluoro-3,5-dimethoxyphenyl)-3′-oxo-2′,3′-dihydro-1′H-spiro[cyclopropane-1,4′-[2,7]naphthyridine]-6′-yl)-1-((tetrahydrofuran-3-yl)methyl)-1H-pyrazol-4-yl)acrylamide], in assay [1] (pre-incubated for 4 hours), the “FGFR1/FGFR4 IC50 ratio” value is given as above 100. In addition, the “FGFR2/FGFR4 IC50 ratio” value in assay [1] (pre-incubated for 4 hours) is above 100. In addition, in assay [1] (pre-incubated for 4 hours), the “FGFR3/FGFR4 IC50 ratio” value was above 100. The IC50 in assay [1] (setting [5]) was below 10 nM; in assay [2], above 200 nM; in assay [3] it was above 200 nM; in assay [4], above 200 nM.
On to `C=CC(=O)Nc1cnn(C[C@H]2CCCO2)c1-c1cc2c(cn1)CN(c1c(F)c(OC)cc(OC)c1F)C(=O)C21CC1` [Example 30, (R)-N-(5-(2′-(2,6-difluoro-3,5-dimethoxyphenyl)-3′-oxo-2′,3′-dihydro-1′H-spiro[cyclopropane-1,4′-[2,7]naphthyridine]-6′-yl)-1-((tetrahydrofuran-2-yl)methyl)-1H-pyrazol-4-yl)acrylamide], for which the “FGFR1/FGFR4 IC50 ratio” value in assay [1] (pre-incubated for 4 hours) is given as above 100. Moreover, in assay [1] (pre-incubated for 4 hours), the “FGFR2/FGFR4 IC50 ratio” value is above 100. The “FGFR3/FGFR4 IC50 ratio” value in assay [1] (pre-incubated for 4 hours) is reported as above 100. The IC50 in assay [1] (setting [5]) was below 10 nM; in assay [2] it was above 200 nM; in assay [3], above 200 nM; in assay [4], above 200 nM.
For `C=CC(=O)Nc1cn(CCOC)nc1-c1cc2c(cn1)CN(c1c(F)c(OC)cc(OC)c1F)C(=O)C21CC1` [Example 32, N-(3-(2′-(2,6-difluoro-3,5-dimethoxyphenyl)-3′-oxo-2′,3′-dihydro-1′H-spiro[cyclopropane-1,4′-[2,7]naphthyridine]-6′-yl)-1-(2-methoxyethyl)-1H-pyrazol-4-yl)acrylamide], the “FGFR1/FGFR4 IC50 ratio” value in assay [1] (pre-incubated for 4 hours) was above 100. For the same molecule, the “FGFR2/FGFR4 IC50 ratio” value in assay [1] (pre-incubated for 4 hours) was above 100. For the same molecule, the “FGFR3/FGFR4 IC50 ratio” value in assay [1] (pre-incubated for 4 hours) is reported as above 100. In addition, the half-inhibitory concentration (IC50) was below 10 nM in assay [1] (setting [5]), above 200 nM in assay [2], above 200 nM in assay [3] and above 200 nM in assay [4].
As to `C=CC(=O)Nc1cn(CCOC(F)(F)F)nc1-c1cc2c(cn1)CN(c1c(F)c(OC)cc(OC)c1F)C(=O)C21CC1` [Example 33, N-(3-(2′-(2,6-difluoro-3,5-dimethoxyphenyl)-3′-oxo-2′,3′-dihydro-1′H-spiro[cyclopropane-1,4′-[2,7]naphthyridine]-6′-yl)-1-(2-(trifluoromethoxy)ethyl)-1H-pyrazol-4-yl)acrylamide], in assay [1] (pre-incubated for 4 hours), the “FGFR1/FGFR4 IC50 ratio” value is above 100. The “FGFR2/FGFR4 IC50 ratio” value in assay [1] (pre-incubated for 4 hours) was above 100. Besides, the “FGFR3/FGFR4 IC50 ratio” value in assay [1] (pre-incubated for 4 hours) is on record as above 100. Moreover, the 50% inhibitory concentration (IC50) in assay [1] (setting [5]) is below 10 nM; in assay [2], above 200 nM; in assay [3], above 200 nM; in assay [4], above 200 nM.
As for `C=CC(=O)Nc1cn(CCN2CCOCC2)nc1-c1cc2c(cn1)CN(c1c(F)c(OC)cc(OC)c1F)C(=O)C21CC1` [Example 34, N-(3-(2′-(2,6-difluoro-3,5-dimethoxyphenyl)-3′-oxo-2′,3′-dihydro-1′H-spiro[cyclopropane-1,4′-[2,7]naphthyridine]-6′-yl)-1-(2-morpholinoethyl)-1H-pyrazol-4-yl)acrylamide], the “FGFR1/FGFR4 IC50 ratio” value in assay [1] (pre-incubated for 4 hours) is on record as above 100. For the same molecule, the “FGFR2/FGFR4 IC50 ratio” value in assay [1] (pre-incubated for 4 hours) is above 100. Besides, in assay [1] (pre-incubated for 4 hours), the “FGFR3/FGFR4 IC50 ratio” value is above 100. Moreover, the IC50 was below 10 nM in assay [1] (setting [5]), above 200 nM in assay [2], above 200 nM in assay [3] and above 200 nM in assay [4].
Take `C=CC(=O)Nc1cn(CC2CCOCC2)nc1-c1cc2c(cn1)CN(c1c(F)c(OC)cc(OC)c1F)C(=O)C21CC1` [Example 35, N-(3-(2′-(2,6-difluoro-3,5-dimethoxyphenyl)-3′-oxo-2′,3′-dihydro-1′H-spiro[cyclopropane-1,4′-[2,7]naphthyridine]-6′-yl)-1-((tetrahydro-2H-pyran-4-yl)methyl)-1H-pyrazol-4-yl)acrylamide]: in assay [1] (pre-incubated for 4 hours), the “FGFR1/FGFR4 IC50 ratio” value was above 100. For the same molecule, the “FGFR2/FGFR4 IC50 ratio” value in assay [1] (pre-incubated for 4 hours) was above 100. Besides, the “FGFR3/FGFR4 IC50 ratio” value in assay [1] (pre-incubated for 4 hours) is on record as above 100. Moreover, the IC50 in assay [1] (setting [5]) is below 10 nM; in assay [2], above 200 nM; in assay [3], above 200 nM; in assay [4] it was above 200 nM.
As for `C=CC(=O)Nc1cn(CC(=O)N(C)C)nc1-c1cc2c(cn1)CN(c1c(F)c(OC)cc(OC)c1F)C(=O)C21CC1` [Example 36, N-(3-(2′-(2,6-difluoro-3,5-dimethoxyphenyl)-3′-oxo-2′,3′-dihydro-1′H-spiro[cyclopropane-1,4′-[2,7]naphthyridine]-6′-yl)-1-(2-(dimethylamino)-2-oxoethyl)-1H-pyrazol-4-yl)acrylamide], in assay [1] (pre-incubated for 4 hours), the “FGFR1/FGFR4 IC50 ratio” value is reported as above 100. Also, in assay [1] (pre-incubated for 4 hours), the “FGFR2/FGFR4 IC50 ratio” value is above 100. Besides, the “FGFR3/FGFR4 IC50 ratio” value in assay [1] (pre-incubated for 4 hours) is recorded as above 100. For the same molecule, the concentration for half-maximal inhibition (IC50) was below 10 nM in assay [1] (setting [5]), above 200 nM in assay [2], above 200 nM in assay [3] and above 200 nM in assay [4].

Values taken from patent US9580423B2, “Bicyclic heterocycles as FGFR4 inhibitors” (Incyte Corporation, priority 2015, dated 2017).
